In ChEMBL document CHEMBL1201862, “PubChem BioAssay data set” (2004):
Activity calls are given as the source filed them.

Tests used:
[1] = Counterscreen for IDE inhibitors: Luminescence-based cell-based high throughput dose response assay to identify compounds that are cytotoxic to HEK cells. [Related pubchem assays: 434962 (Primary screen (IDE inhibitors in singlicate)), 449730 (Counterscreen (Cytotoxicity in triplicate)), 435028 (Confirmation (IDE inhibitors in triplicate)) …; type: functional; conditions: HEK293
Insulin-degrading enzyme = biological target: T1, Insulin-degrading enzyme (Homo sapiens, UniProt P14735); experiment: Dose Response: Fluorescence polarization-based cell-based high throughput dose response assay for inhibitors of insulin-degrading enzyme (IDE). [Related pubchem assays: 434962 (Primary screen (IDE inhibitors in singlicate)), 449730 (Counterscreen (Cytotoxicity in triplicate)), 435028 (Confirmation (IDE inhibitors in triplicate)), 434984 (Summary …; type: functional
T1 sequence (P14735 whole entry): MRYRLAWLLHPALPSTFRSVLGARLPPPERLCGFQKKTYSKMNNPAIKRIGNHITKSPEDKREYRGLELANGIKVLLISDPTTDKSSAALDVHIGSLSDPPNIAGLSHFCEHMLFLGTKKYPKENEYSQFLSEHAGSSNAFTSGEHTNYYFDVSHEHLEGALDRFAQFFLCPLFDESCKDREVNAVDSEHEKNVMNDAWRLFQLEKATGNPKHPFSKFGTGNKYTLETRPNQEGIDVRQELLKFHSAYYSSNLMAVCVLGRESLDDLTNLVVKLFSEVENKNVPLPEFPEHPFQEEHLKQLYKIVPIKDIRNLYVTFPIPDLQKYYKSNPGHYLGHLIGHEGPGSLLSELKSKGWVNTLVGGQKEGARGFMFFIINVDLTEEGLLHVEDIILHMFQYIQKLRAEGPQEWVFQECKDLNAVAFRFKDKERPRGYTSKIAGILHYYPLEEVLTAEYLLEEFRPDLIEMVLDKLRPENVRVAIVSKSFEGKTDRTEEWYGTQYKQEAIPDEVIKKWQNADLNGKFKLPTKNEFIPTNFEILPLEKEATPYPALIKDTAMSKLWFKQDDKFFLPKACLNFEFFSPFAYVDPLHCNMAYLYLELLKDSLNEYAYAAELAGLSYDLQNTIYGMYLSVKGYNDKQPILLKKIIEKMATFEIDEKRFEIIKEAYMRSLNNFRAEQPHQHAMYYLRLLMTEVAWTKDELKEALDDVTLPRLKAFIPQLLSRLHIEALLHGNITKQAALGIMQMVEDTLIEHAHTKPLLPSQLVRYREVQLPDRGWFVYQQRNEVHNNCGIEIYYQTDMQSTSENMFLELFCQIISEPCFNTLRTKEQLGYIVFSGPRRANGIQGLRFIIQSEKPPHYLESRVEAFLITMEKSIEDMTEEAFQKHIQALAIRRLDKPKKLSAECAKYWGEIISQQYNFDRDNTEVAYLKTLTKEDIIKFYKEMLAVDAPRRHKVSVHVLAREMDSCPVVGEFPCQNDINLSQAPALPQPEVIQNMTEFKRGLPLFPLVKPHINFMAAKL

[2] = inhibitors of firefly luciferase expression or activity, dose response, H4 neuroglioma cells, luminescence (AID 1990); type: functional, cell-based
[3] = luciferase reporter signal reduction – luminescence, H4-C neuroglioblastoma cells, dose response (AID 2458); type: functional, cell-based;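 note: H4 neuroglioblastoma cells stably carrying a luciferase reporter gene fusion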
BJ [4] = experiment: cytotoxicity toward BJ-TERT fibroblasts, dose response, cell-based, RAS-independent, luminescence (AID 1933); type: functional; conditions: Homo sapiens
cells = type: functional, cell-based
[5] = Luminescence Cell-Based Dose Response HTS to Identify Inhibitors of 5'UTR Stem-Loop Driven Prion Protein mRNA Translation in H4 Neuroglioblastoma Cells. [Related pubchem assays: 1827 (Project Summary), 1813 (Primary HTS)]; type: functional
[6] = inhibitors of SNCA 5'UTR-driven reporter translation, confirmation, H4 neuroglioma cells, luminescence (AID 1988); type: functional, cell-based
BJ [7] = experiment: cells; type: functional, cell-based; conditions: Homo sapiens
BJ [8] = experiment: cytotoxicity toward BJ-TERT-LT-ST fibroblasts, dose response, cell-based, RAS-independent, luminescence (AID 1935); type: functional; conditions: Homo sapiens;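 note: BJ fibroblasts immortalized with TERT plus LT and ST oncogenes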
[9] = cytotoxicity toward DRD oncogenic fibroblasts, dose response, cell-based, non-viral oncogenic, luminescence (AID 1934); type: functional; conditions: Homo sapiens
[10] = inhibitors of SNCA 5'UTR-driven translation, confirmation, luminescence, H4 neuroglioblastoma cells, dose confirmation (AID 2454); type: functional, cell-based;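 note: H4 neuroglioblastoma cells carrying an alpha-synuclein 5'UTR luciferase reporter; potency for inhibition of the luciferase signal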
[11] = HEK293 cell cytotoxicity, dose response, cytotoxicity control, dry powder samples (AID 720567); type: functional, cell-based
[12] = Luminescent dose response cell-based high throughput screening assay for inhibitors of the Janus kinase 2 mutant JAK2V617F. [Related pubchem assays: 1446 (Primary screen.), 1521 (Confirmation assay.), 1486 (Counter screen.)]; type: functional
[13] = NIH-3T3 fibroblast cytotoxicity, dose response, cytotoxicity control, cell-based, fluorescence, Alamar Blue, secondary assay (AID 2327); type: functional;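 note: NIH-3T3 mouse fibroblasts cultured with fluconazole at 8 µg/mL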
[14] = biological target: Sphingosine 1-phosphate receptor 2 (Homo sapiens, UniProt O95136); experiment: Dose Response Cell Based Assay for Antagonists of the S1P2 Receptor. [Related pubchem assays: 856, 736 ]; type: functional
Sphingosine 1-phosphate receptor 2, sequence (O95136 whole entry): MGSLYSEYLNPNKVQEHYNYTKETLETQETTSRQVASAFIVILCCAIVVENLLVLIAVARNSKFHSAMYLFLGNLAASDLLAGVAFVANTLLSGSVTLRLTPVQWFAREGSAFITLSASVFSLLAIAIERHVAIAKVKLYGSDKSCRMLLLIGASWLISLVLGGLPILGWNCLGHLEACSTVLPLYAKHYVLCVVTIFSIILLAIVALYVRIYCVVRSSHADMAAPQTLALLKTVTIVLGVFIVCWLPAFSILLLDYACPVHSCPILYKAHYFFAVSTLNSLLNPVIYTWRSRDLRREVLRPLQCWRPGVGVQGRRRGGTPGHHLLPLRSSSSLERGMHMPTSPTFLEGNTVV

HeLa = experiment: Cytotoxicity counterscreen assay for transcriptional activators of heat shock protein 70 (Hsp70). [Related pubchem assays: 1203, 1252 ]; type: functional; conditions: Homo sapiens;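 note: cells exposed to compound for 16 hours before readout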
[15] = biological target: T2, Heat shock factor protein 1 (Mus musculus, UniProt P38532); experiment: inhibition of MG132-induced HSE-luciferase signal, confirmation, cell-based, NIH3T3, luminescence, dose retest (AID 2382); type: functional;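 note: NIH3T3 fibroblasts with HSF1-driven luciferase reporter stressed by proteasome inhibitor MG132; luminescence from HSF1-driven luciferase expression after 8 hours of MG132 stress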
T2 sequence (P38532 whole entry): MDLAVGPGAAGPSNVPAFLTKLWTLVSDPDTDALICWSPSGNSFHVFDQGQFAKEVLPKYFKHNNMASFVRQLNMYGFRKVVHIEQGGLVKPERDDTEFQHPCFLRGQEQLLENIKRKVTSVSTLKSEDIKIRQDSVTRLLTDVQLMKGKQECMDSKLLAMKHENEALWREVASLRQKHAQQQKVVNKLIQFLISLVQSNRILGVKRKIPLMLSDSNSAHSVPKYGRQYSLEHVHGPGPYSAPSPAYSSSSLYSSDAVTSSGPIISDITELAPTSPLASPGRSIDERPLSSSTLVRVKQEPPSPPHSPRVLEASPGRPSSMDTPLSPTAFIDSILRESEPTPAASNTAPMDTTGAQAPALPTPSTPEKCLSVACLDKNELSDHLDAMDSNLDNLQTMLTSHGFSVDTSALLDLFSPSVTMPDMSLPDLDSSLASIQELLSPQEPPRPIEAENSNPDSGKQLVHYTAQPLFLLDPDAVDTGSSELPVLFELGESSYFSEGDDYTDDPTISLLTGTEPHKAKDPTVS

[16] = C. albicans growth with fluconazole, confirmation, fluorescence, retest (AID 2467); type: functional, cell-based
[17] = inhibitors of intracellular T. cruzi replication, confirmation, NIH3T3 host cells, beta-gal luminescence (AID 2044); type: functional, cell-based;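 note: intracellular parasites grown in NIH/3T3 mouse fibroblasts as host cells; luminescent beta-galactosidase reporter signal from transgenic T. cruzi replicating inside host cells; inhibitors lower the luminescence signal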
[18] = cytotoxicity toward NIH3T3 fibroblasts, dose response, counter-screen, cell-based, ATP luminescence, mouse fibroblasts (AID 2010); type: functional;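 note: cells exposed to compound for about 90 hours before reading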
[19] = Intein inhibitors as potential Tuberculosis drugs, a cytotoxicity screen. [Related pubchem assays (depositor defined):AID2221, AID2223, AID434968, AID435010, AID449749, AID449750, AID489010]; type: functional
CHO = experiment: cytotoxicity in TLR9-MyD88 CHO cells, dose response, cytotoxicity control for TLR9-MyD88 binding inhibitor project, cell-based, luminescence (AID 588339); type: functional, hamster; conditions: Cricetulus griseus;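 note: CHO cells stably coexpressing TLR9 and MyD88 fusions from primary screen; compound exposure lasted 48 hours before viability readout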
[20] = biological target: T3, Replicative DNA helicase DnaB (Mycobacterium tuberculosis, UniProt P9WMR3); experiment: DnaB intein splicing inhibitors, dose response, biochemical, cell-free fluorescence (AID 449749); type: functional
T3 sequence (P9WMR3 whole entry): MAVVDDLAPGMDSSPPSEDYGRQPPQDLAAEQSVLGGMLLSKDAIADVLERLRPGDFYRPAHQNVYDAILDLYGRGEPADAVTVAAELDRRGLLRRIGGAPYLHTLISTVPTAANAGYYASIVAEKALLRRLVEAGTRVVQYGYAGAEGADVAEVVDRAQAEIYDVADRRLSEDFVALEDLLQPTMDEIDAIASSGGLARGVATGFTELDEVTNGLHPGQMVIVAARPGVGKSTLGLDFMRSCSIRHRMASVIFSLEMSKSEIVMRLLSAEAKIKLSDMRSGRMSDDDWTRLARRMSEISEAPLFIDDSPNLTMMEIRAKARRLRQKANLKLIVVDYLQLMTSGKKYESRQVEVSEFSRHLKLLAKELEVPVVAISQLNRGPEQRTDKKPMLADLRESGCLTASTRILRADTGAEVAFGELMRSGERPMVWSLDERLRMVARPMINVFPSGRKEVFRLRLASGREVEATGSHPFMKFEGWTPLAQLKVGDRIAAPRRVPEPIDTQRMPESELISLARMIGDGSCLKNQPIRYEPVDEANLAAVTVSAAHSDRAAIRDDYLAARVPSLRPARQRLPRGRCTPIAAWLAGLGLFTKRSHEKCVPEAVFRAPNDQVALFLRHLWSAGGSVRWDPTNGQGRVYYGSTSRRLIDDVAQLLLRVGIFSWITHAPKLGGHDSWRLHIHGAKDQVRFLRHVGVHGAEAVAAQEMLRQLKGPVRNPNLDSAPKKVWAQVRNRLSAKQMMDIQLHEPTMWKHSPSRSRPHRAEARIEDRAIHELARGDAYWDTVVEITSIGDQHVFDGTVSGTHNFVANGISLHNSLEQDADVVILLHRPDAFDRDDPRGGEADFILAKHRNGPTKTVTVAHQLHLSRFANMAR

Protein RecA = biological target: T4, Protein RecA (Mycobacterium tuberculosis, UniProt P9WHJ3); experiment: Fluorescence Cell-Free Homogeneous Dose Retest to Identify Inhibitors of RecA-Intein Splicing Activity. [Related pubchem assays (depositor defined):AID2097, AID2223, AID489010, AID492950]; type: functional
T4 sequence (P9WHJ3 whole entry): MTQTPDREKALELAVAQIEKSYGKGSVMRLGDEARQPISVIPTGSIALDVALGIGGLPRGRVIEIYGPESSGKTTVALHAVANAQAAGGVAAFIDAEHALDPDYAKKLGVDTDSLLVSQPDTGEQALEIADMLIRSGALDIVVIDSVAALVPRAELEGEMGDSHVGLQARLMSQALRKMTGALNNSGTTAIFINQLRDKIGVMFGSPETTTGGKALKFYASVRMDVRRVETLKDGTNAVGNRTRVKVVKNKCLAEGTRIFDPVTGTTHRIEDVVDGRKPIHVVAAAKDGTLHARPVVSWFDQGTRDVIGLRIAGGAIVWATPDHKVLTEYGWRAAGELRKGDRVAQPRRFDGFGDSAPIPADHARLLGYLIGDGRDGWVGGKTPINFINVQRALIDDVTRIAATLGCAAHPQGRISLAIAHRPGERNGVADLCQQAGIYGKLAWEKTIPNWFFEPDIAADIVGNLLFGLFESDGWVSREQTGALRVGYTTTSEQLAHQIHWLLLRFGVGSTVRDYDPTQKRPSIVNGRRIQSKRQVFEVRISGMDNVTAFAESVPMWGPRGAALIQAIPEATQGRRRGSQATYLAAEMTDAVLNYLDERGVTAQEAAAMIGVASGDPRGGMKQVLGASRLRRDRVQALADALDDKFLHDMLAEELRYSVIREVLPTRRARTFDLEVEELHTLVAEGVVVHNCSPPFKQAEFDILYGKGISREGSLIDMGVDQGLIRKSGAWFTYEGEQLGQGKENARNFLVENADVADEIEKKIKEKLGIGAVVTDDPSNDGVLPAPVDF

Beta Lactamase = Beta Lactamase (Pseudomonas aeruginosa, UniProt Q932Y6); experiment: beta-lactamase reporter inhibitor potency, dose response, artefact control for TLR9-MyD88 binding inhibitor project, BLA reporter cells, FRET fluorescence (AID 588341); type: cell-based;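 note: cell based assay in CHO-K1 cells stably expressing beta-lactamase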
Beta Lactamase, sequence (Q932Y6 whole entry): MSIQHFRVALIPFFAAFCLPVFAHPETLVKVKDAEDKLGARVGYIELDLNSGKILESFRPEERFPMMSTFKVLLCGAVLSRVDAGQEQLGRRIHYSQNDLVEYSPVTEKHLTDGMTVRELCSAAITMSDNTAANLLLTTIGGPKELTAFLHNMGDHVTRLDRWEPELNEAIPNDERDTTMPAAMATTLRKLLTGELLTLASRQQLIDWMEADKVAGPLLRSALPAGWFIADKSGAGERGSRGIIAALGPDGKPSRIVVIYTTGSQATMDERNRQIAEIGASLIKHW

INS1 = experiment: beta cell apoptosis inhibitors, cytokine rescue, dose response, luminescence, retest (AID 449756); type: functional, cell-based; conditions: Rattus norvegicus;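 note: cell death triggered by IL-1 beta plus TNF-alpha plus IFN-gamma mixture; protective hits raise ATP signal compared with cytokine alone wells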
[21] = Shn3 3'UTR reporter inhibitors, dose response, cell-based, Clone20 osteoblasts, firefly luciferase, cherry-picked (AID 624132); type: functional;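 note: firefly luciferase luminescence from reporter carrying the Shn3 3'UTR in osteoblasts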
[22] = HepG2 cell cytotoxicity, dose response, cytotoxicity control for Shn3 inhibitor project, CellTiter-Glo, cherry-picked (AID 624134); type: functional, cell-based
[23] = control 3'UTR Renilla luciferase suppression, dose response, counter-screen for Shn3 inhibitor project, cell-based, Clone20-Shn3RL, cherry-picked (AID 624133); type: functional
[24] = miR-122 activators in hepatoma reporter cells, dose response, cell-based, Huh7 psiCHECK-miR122, Renilla luciferase, cherry-picked (AID 651956); type: functional;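 note: huh7 hepatoma cells stably carrying a psiCHECK-2 miR-122 sensor plasmid; renilla luciferase signal reporting endogenous miR-122 activity after 48 h compound exposure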
[25] = HEK293T cytotoxicity, dose response, cytotoxicity control for miR-122 modulator project, cell-based, inhibitor set, cherry-pick, set 2 (AID 720697); type: functional
[26] = HEK293T cytotoxicity, dose response, cytotoxicity control for miR-122 modulator project, cell-based, activator set, cherry-pick (AID 720690); type: functional;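 note: HEK293T human cells scored for general mammalian cytotoxicity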

For `Oc1sc(/C=N/c2ccc(F)cc2)c2ccccc12`, the IC50 [1] was > 55.7 µM (not active) and the IC50 (Insulin-degrading enzyme) was > 55.9 µM (not active).

With `CCOc1ccc(NC(=O)c2cc(OC)nc3ccccc23)cc1` the EC50 [2] was 4.73 µM (active), the EC50 [3] was 0.965 µM (active) and the EC50 (BJ [4]) was 1.11 µM (active). For the same molecule, the EC50 (cells) was 1.96 µM (active), the EC50 [5] was 0.303 µM (active) and the EC50 [6] was < 0.1 µM (active). The EC50 (BJ [7]) was 69.8 µM (inconclusive), the EC50 (BJ [8]) was 1.38 µM (inconclusive) and the EC50 [9] was 0.894 µM (active). For the same molecule, the EC50 [10] was 1.16 µM (active) and the AC50 [11] was > 30 µM (inactive).

In the case of `O=C(OCn1ncc(Cl)c(Cl)c1=O)c1ccccc1Cl`, the IC50 [12] was 0.401 µM (active), the EC50 [13] was 2.57 µM (inconclusive) and the IC50 [14] was 3.15 µM (active). The CC50 (HeLa) was > 11 µM (not active), the EC50 [15] was 1.99 µM (active) and the EC50 [16] was > 38 µM (not active). The EC50 [17] was 1.04 µM (active), the EC50 [18] was 1.07 µM (active) and the CC50 [19] was 5.38 µM (active). The IC50 (CHO) was 1.64 µM (active), the AC50 [20] was 3.32 µM (active) and the EC50 (Protein RecA) was 0.669 µM (active). For the same molecule, the IC50 (Beta Lactamase) was > 49.8 µM (inactive), the AC50 (INS1) was 5.37 µM (active) and the AC50 [21] was 3.56 µM (active). The AC50 [22] was 27.3 µM (active), the AC50 [23] was 3.56 µM (active) and the AC50 [24] was 11.2 µM (active). The AC50 [25] was 4.39 µM (active) and the AC50 [26] was 4.89 µM (active).
